This is an account of results in the NIST ThermoML archive (doi:10.1016/j.fluid.2008.06.003).

Molecules are shown by their SMILES. Numbers after ± are expanded uncertainties.

The first data set is described as follows: refractive index (Na D-line) (dimensionless). Particulars: 298.15 K; 101.33 kPa; Liquid; Standard Abbe refractometry.
As a reminder, the refractive index is a measure of how strongly the sample bends light. Turning to `CCCCCCn1cc[n+](C)c1.F[P-](F)(F)(F)(F)F` [1-hexyl-3-methylimidazolium hexafluorophosphate], the refractive index was 1.41787 ± 0.001.

`CCCCCCCC[n+]1ccn(C)c1.F[P-](F)(F)(F)(F)F` [1-octyl-3-methylimidazolium hexafluorophosphate]: the refractive index was 1.42302 ± 0.001.

Consider `CCO` [ethanol], for which the refractive index amounted to 1.35929 ± 0.00031.

With `CCCCCCC` [heptane], the refractive index was 1.38517 ± 0.00037.

Regarding `CCCCCC` [hexane], the refractive index amounted to 1.37217 ± 0.00037.

Assay in a further data set: not given
The settings on record: 298.15 K; 101.33 kPa; Liquid.
What is called mass density is mass per unit of volume. Consider `CCO` [ethanol], for which the mass density was determined as 785.1 ± 0.5 kg/m3.

Regarding `CCCCCCC` [heptane], the mass density is reported as 679.5 ± 1 kg/m3.

In the case of `CCCCCC` [hexane], the mass density is on record as 654.9 ± 1.1 kg/m3.

The same data set, now with this note: 298.15 K; 101.33 kPa; Liquid; Vibrating tube method.
Turning to `CCCCCCn1cc[n+](C)c1.F[P-](F)(F)(F)(F)F` [1-hexyl-3-methylimidazolium hexafluorophosphate], the mass density was determined as 1293.7 ± 9.1 kg/m3.

As for `CCCCCCCC[n+]1ccn(C)c1.F[P-](F)(F)(F)(F)F` [1-octyl-3-methylimidazolium hexafluorophosphate], the mass density was 1235.7 ± 8.3 kg/m3.
